# Measurements published in PMC12224939, “Trypstatin as a Novel TMPRSS2 Inhibitor with Broad‐Spectrum Efficacy against Corona and Influenza Viruses” (Advanced Science, 2025).
# Counter-ions that a name gives are not always drawn. Like-named read-outs stand apart in the source and are kept apart here. Bridge positions count the residues as written; N and C are the ends. Ends that are not written are not given here.
# Assays:
# [1] = system: lentiviral pseudoparticles harboring the SARS-CoV-2 Hu-1 spike
# SARS-CoV-2 B.1 D614G = conditions: read-out: anti-viral IC50 (±SEM), SARS-CoV-2 B.1
# [2] = system: lentiviral pseudoparticles harboring the SARS-CoV-2 Hu-1 spike; test: microbe, parasite or virus in culture; conditions: Severe acute respiratory syndrome coronavirus 2, Caco-2, 48 h, read-out: IC50, SARS-CoV-2 spike-driven pseudoparticle entry, Caco-2 cells, Hu-1 spike, luciferase 48 h after transduction
# [3] = read-out: IC50, SARS-CoV-2 spike-driven pseudoparticle entry, Caco-2 cells, luciferase 48 h after transduction
molecule,measurement,setting,value
"CNLPIVRGPCRAFIQLWAFDAVKGKCVLFPYGGCQGNGNKFYSEKECREYC (disulfide 1-51, 10-34, 26-47) [Bikunin KD 2]",IC50,[1]; [3],170 ± 20 nM
Antitrypsin,IC50,"[1]; read-out: IC50, SARS-CoV-2 spike-driven pseudoparticle entry, Caco-2 cells, luciferase 48 h after transduction, listed as α‐1‐antitrypsin",27400 ± 4100 nM
Aprotinin,IC50,[1]; [3],427 ± 30 nM
"CC(=O)NCC(=O)N[C@@H](CCC(N)=O)C(=O)N[C@@H](Cc1ccccc1)C(=O)N[C@@H](CCCN=C(N)N)C(=O)c1nc2ccccc2s1 [MM3122, reference compound]",IC50,[1]; [3],31.2 ± 3 nM
CN(C)C(=O)COC(=O)Cc1ccc(OC(=O)c2ccc(NC(=N)N)cc2)cc1 [Camostat mesylate],IC50,SARS-CoV-2 B.1 D614G,4.1 ± 2 nM
same,IC50,[2],93.8 ± 6 nM
N=C(N)c1ccc2cc(OC(=O)c3ccc(N=C(N)N)cc3)ccc2c1 [Nafamostat mesylate],IC50,[2],14.4 ± 1 nM
"Bikunin (protein, UniProt P02760 206-352, looked up, Inter-alpha-trypsin inhibitor light chain) Inter-alpha-trypsin inhibitor …: AVLPQEEEGSGGGQLVTEVTKKEDSCQLGYSAGPCMGMTSRYFYNGTSMACETFQYGGCMGNGNNFVTEKECLQTCRTVAACNLPIVRGPCRAFIQLWAFDAVKGKCVLFPYGGCQGNGNKFYSEKECREYCGVPGDGDEELLRFSN",IC50,[1]; [3],6100 ± 1200 nM
